Measurements: patent publication US6121512A, “Cytochrome P-450 constructs and method of producing herbicide-resistant transgenic plants” (North Carolina State University, priority 1997, dated 2000)

Assays:
[1] = tested on: CYP71A10-transformed tobacco; experiment: Herbicide tolerance, seeds germinated on herbicide medium, CYP71A10-transformed tobacco; type: in vivo, Nicotiana tabacum cv SR1; settings: 1.0 μM chlortoluron in medium
Experimental: (§1) T1 generation seeds from CYP71A10-transformed tobacco and pBI121-transformed control plants were placed onto Petri dishes containing MS salts and linuron (using its commercial formulation LOROX 50 DF) at active ingredient concentrations ranging from 0.25 to 3.0 μM. Chlortoluron was added at 0, 1.0, 5.0 and 10.0 μM concentrations using a 99.5% pure analytical standard. The Petri dishes were incubated in a growth chamber maintaining a constant temperature of 27° C. and a 16/8 hour light/dark cycle. The phytotoxic effects of the treatments were determined visually by comparison to control plants and plants grown in the absence of the herbicide. All treatments were repeated at least twice.

soybean CYP71A10 = molecular target: T1, soybean CYP71A10 (Glycine max, UniProt O48918); experiment: In vitro herbicide metabolism assay and enzyme kinetics, microsomes of yeast expressing CYP71A10; type: biochemical
T1 construct: microsomes of yeast W(R) overexpressing endogenous P450 reductase
T1 sequence (O48918 1-513): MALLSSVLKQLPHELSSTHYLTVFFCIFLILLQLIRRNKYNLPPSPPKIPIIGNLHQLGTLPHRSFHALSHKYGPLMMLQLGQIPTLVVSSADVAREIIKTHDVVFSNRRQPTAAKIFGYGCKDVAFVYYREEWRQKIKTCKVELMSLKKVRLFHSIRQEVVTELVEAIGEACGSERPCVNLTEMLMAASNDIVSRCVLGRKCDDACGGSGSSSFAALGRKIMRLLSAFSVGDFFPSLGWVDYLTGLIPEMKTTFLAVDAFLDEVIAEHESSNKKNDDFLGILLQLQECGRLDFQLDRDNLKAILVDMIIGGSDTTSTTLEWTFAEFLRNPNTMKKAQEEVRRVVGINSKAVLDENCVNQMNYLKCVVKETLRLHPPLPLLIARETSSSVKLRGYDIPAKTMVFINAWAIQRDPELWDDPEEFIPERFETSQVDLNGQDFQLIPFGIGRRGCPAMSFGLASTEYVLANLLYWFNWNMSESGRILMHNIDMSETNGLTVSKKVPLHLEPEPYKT
T1 sequence (P16603 1-691 partner): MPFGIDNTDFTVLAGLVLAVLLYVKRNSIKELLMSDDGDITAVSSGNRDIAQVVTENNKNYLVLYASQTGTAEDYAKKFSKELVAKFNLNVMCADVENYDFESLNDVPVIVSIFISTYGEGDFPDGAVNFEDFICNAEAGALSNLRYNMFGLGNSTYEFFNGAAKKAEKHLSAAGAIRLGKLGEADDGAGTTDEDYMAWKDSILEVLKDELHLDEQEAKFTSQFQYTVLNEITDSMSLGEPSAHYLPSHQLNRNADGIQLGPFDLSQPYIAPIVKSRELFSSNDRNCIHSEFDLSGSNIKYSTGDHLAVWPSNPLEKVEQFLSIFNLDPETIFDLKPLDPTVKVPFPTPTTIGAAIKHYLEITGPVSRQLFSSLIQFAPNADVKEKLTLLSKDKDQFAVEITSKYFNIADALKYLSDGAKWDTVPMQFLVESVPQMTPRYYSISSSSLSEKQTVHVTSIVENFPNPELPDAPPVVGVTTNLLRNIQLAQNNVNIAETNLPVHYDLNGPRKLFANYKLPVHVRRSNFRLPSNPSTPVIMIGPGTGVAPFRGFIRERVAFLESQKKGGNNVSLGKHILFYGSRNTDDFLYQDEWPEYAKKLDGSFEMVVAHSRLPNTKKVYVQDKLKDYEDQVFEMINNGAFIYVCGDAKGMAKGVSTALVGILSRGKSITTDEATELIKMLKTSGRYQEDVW
Experimental: Yeast transformation was performed as described by Geitz et al., Nucleic Acids Research 20:1425 (1992). Media composition, culturing conditions, galactose induction, and microsomal preparations were conducted according to Pompon et al., Methods Enzymol. 272:51-64 (1995), using a culture volume of 250 ml. Microsomal protein was quantified spectrophotometrically using the method of Waddell, J. Lab. Clin. Med. 48:311-314 (1956), using bovine albumin as a standard. Dithionite-reduced, carbon monoxide difference spectra was obtained as previously outlined (Estabrook and Werringloer, Methods Ennzmol. 52:212-220 (1978)) using a Shimadzu Recording Spectrophotometer UV-240 (Shimadzu, Kyoto, Japan). P-450 protein concentrations of yeast microsomes were calculated using a millimolar extinction coefficient of 91 (Omura and Sato, J. Biol. Chem., 239:2370-2378 (1964)).
Yeast microsomes enriched for a discrete soybean P-450 isozyme were assayed for their capacity to metabolize the ten herbicides and one insecticide listed in Table 3. The reaction mixtures contained 10,000 DPM (100-200 ng) radiolabeled substrate, 0.75 mM NAPDH, 2.5 mg/ml microsomal protein. Total reaction volumes were adjusted to 150 μl with 50 mM phosphate buffer (pH 7.1). The mixtures were incubated under light for 45 minutes at 27° C., arrested with 50 μl acetone and centriftiged at 14 000×g for 2 minutes. […] Radiolabeled bentazon and imazaquin-containing samples were spotted onto 200 micron Whatman LKC18F silica gel reversed-phase plates. All plates were developed in a benzene/acetone 2:1 (v/v) solvent system with the exception of prosulfaron, developed in toluene/acetone/acetic acid, 75:20:5 (v/v/v), and bentazon and imazaquin, developed in methanol/75 mM sodium acetate 40:60 (v/v). The developed plates were scanned with a Bioscan System 400 imaging scanner (Bioscan, Washington, D.C.), and the production of metabolites was determined based on the chromatographic profiles. For microsomes containing the expressed CYP71A10 enzyme, control experiments were also conducted to measure the NADPH-dependency, and the inhibitory effects of CO. CO treatment of the sample was achieved by gentle bubbling of the gas through the reaction mixture for 2 minutes immediately before the assay was initiated by the addition of NADPH.
Substrate conversion was quantified by a combination of TLC analysis and scintillation spectrometry. The location of the metabolic products on the TLC plates was identified using an imaging scanner, the bands were scraped and analyzed by scintillation spectrometry. The amount of metabolite produced was calculated based on specific activity and scintillation counts. Each assay was repeated at least twice. Km and Vmax values were estimated using nonlinear regression analysis.

[2] = tested on: wild-type SR1 plants and pBI121-transformed control tobacco plants; experiment: Herbicide tolerance, seeds germinated on herbicide medium, control tobacco; type: in vivo, Nicotiana tabacum cv SR1; settings: 1.0 μM chlortoluron in medium
Experimental: as §1

SMILES: Cc1ccc(NC(=O)N(C)C)cc1Cl [Chlortoluron, chlortoluron]
- growth of the 25/2 plants [1]: modestly inhibited
- metabolites formed from the radiolabeled herbicide (TLC) (soybean CYP71A10; 45 minutes at 27° C., 0.75 mM NADPH, 2.5 mg/ml microsomal protein): two (a major and a minor) metabolites
- Turnover (soybean CYP71A10; yeast microsomes containing CYP71A10, standard error in parentheses): 0.7 (0.05) min^-1
- growth of the control plants [2]: completely arrested
